Patent publication US20250333410A1, “COMPOUND FOR INHIBITING OR DEGRADING BCL6 AND USE THEREOF IN PHARMACEUTICS” (XIZANG HAISCO PHARMACEUTICAL CO., LTD., priority 2022, published 2025)

Key:
[1] = Pharmacokinetic test in mice; assay type: in vivo, ICR mice; details: i.g. 5 mg/kg
Protocol: 3. Pharmacokinetic Test in Mice
1.1 Experimental animal: male ICR mice, 25-30 g, 6 mice/compound, purchased from Chengdu Ddossy Experimental Animals Co., Ltd.
1.2 Experimental design: on the day of the experiment, the ICR mice were randomly grouped according to their body weights. The animals were fasted but with water available for 12 to 14 h one day before the administration, and were fed 4 h after the administration.

[2] = Pharmacokinetic test in rats; assay type: in vivo, SD rats; details: i.g. 5 mg/kg; for AUC(0-t): male, SD, rat, po, rats plasma
Protocol: 5. Pharmacokinetic Test in Rats
Experimental objective: in this experiment, a single dose of each test compound was administered to SD rats intravenously and intragastrically, and the concentrations of the test compounds in plasma of rats were measured to evaluate the pharmacokinetic characteristics of the test compounds in rats.
Experimental animal: male SD rats, 200-220 g, 6-8 weeks old, 6 rats/compound, purchased from Chengdu Ddossy Experimental Animals Co., Ltd.
Experimental method: on the day of the experiment, the SD rats were randomly grouped according to their body weights. The animals were fasted but with water available for 12 to 14 h one day before the administration, and were fed 4 h after the administration.
Sampling: Before and after the administration, 0.1 mL of blood was taken from the orbits under isoflurane anesthesia and placed in an EDTAK2 centrifuge tube. Centrifugation was carried out at 5000 rpm at 4° C. for 10 min, and the plasma was collected.
The plasma collection time points for IV&PO groups were 0, 5 min, 15 min, 30 min, 1 h, 2 h, 4 h, 7h, and 24 h.
Before analysis and detection, all samples were stored at −60° C. The samples were analyzed quantitatively by LC-MS/MS. PGP-3212J

Bcl6 [3] = biological target: T1, Bcl6 (Homo sapiens (Human), UniProt P41182); assay: Bcl-6 protein degradation experiment in Farage cells; assay type: cell-based; details: 24 hours
Protocol: 2. Bcl-6 Protein Degradation Experiment in Farage Cells
(§1) Farage cells purchased from ATCC were placed in an RPMI-1640 complete medium (containing 10% fetal bovine serum, 100 U/mL penicillin and 100 μg/mL streptomycin) and cultured at 37° C. and 5% CO2. The cells in the logarithmic growth phase were collected, and the cell suspension was adjusted to an appropriate density with the culture medium and added to a 6-well cell culture plate at a volume of 1 mL/well. The compounds to be tested were prepared to 2-fold the final concentration, 1 mL of the compounds at different concentrations were added to administration wells, a medium containing 0.2% DMSO was added to control wells, and the plate was incubated at 37° C. for 24 hours. The cells were collected into a 1.5 mL centrifuge tube, 25 μL of RIPA lysis buffer (containing 1× protease inhibitor cocktail) was added, and the cells were lysed on ice for 15 minutes and centrifuged at 12000 rpm/min at 4° C. for 10 minutes. The supernatant was collected and the protein content was determined using the BCA method. The protein sample to be tested was diluted to 0.8 mg/mL, Bcl6 was detected using a fully automated protein expression quantitative analyzer (ProteinSimple), and the internal reference protein was R-actin (both antibodies were from CST). The software (Compass for SW) of the fully automated protein expression quantitative analyzer was used to process the raw data and calculate the peak area and the Bcl6 expression rate relative to the control group. DC50 values were calculated using a four-parameter non-linear fitting model in Graphpad 8.3.0 software.

[4] = biological target: hERG potassium ion channel (Homo sapiens (Human), UniProt Q12809); assay: Test for hERG potassium ion channel (manual patch-clamp, CHO cells); assay type: cell-based; details: CHO cells stably expressing hERG, whole cell patch-clamp; read-out: IC50 of inhibitory effects on hERG potassium channel current
Source text: 8. Test for hERG Potassium Ion Channel
Experimental platform: electrophysiological manual patch-clamp system
Cell line: Chinese hamster ovary (CHO) cell lines stably expressing hERG potassium ion channel
Experimental method: in CHO (Chinese Hamster Ovary) cells stably expressing hERG potassium channel, the whole cell patch-clamp technique was used to record hERG potassium channel current at room temperature. The glass microelectrode was made of a glass electrode blank (BF150-86-10, Sutter) by a puller. The tip resistance after filling the liquid in the electrode was about 2-5 MΩ. The glass microelectrode can be connected to the patch-clamp amplifier by inserting the glass microelectrode into an amplifier probe. The clamping voltage and data recording were controlled and recorded by the pClamp 10 software through a computer. The sampling frequency was 10 kHz, and the filtering frequency was 2 kHz. After the whole cell records were obtained, the cells were clamped at −80 mV, and the step voltage that induced the hERG potassium current (IhERG) was depolarized from −80 mV to +20 mV for 2 s, then repolarized to −50 mV, and returned to −80 mV after 1 s. This voltage stimulation was given every 10 s, and the administration process was started after the hERG potassium current was confirmed to be stable (at least 1 minute). The compound was administered for at least 1 minute at each test concentration, and at least 2 cells (n≥2) were tested at each concentration.
Data processing: data analysis processing was carried out by using pClamp 10, GraphPad Prism 5 and Excel software. The inhibition degree of hERG potassium current (peak value of hERG tail current induced at −50 mV) at different compound concentrations was calculated by the following formula: […]
where Inhibition % represents the percentage of inhibition of hERG potassium current by the compound, and I and Io represent the amplitude of hERG potassium current after and before the administration, respectively.
Compound IC50 was calculated using GraphPad Prism 5 software by fitting according to the following equation: […]
Among the equation, X represents the Log value of the tested concentration of the test sample, Y represents the inhibition percentage at the corresponding concentration, and Bottom and Top represent the minimum and maximum inhibition percentage, respectively.

Bcl6 [5] = biological target: T1, Bcl6; assay: Bcl-6 protein degradation experiment in OCI-LY1 cells; assay type: cell-based; details: 24 hours
Protocol: 4. Bcl-6 Protein Degradation Experiment in OCI-LY1 Cells
as §1, with “OCI-LY1” for “Farage”, “DSMZ” for “ATCC”, “IMDM” for “RPMI-1640”, “penicillin,” for “penicillin and”, “streptomycin and 50 µM mercaptoethanol)” for “streptomycin)”, “[…]” for “μL”

Chain of hERG potassium ion channel (Q12809 whole entry): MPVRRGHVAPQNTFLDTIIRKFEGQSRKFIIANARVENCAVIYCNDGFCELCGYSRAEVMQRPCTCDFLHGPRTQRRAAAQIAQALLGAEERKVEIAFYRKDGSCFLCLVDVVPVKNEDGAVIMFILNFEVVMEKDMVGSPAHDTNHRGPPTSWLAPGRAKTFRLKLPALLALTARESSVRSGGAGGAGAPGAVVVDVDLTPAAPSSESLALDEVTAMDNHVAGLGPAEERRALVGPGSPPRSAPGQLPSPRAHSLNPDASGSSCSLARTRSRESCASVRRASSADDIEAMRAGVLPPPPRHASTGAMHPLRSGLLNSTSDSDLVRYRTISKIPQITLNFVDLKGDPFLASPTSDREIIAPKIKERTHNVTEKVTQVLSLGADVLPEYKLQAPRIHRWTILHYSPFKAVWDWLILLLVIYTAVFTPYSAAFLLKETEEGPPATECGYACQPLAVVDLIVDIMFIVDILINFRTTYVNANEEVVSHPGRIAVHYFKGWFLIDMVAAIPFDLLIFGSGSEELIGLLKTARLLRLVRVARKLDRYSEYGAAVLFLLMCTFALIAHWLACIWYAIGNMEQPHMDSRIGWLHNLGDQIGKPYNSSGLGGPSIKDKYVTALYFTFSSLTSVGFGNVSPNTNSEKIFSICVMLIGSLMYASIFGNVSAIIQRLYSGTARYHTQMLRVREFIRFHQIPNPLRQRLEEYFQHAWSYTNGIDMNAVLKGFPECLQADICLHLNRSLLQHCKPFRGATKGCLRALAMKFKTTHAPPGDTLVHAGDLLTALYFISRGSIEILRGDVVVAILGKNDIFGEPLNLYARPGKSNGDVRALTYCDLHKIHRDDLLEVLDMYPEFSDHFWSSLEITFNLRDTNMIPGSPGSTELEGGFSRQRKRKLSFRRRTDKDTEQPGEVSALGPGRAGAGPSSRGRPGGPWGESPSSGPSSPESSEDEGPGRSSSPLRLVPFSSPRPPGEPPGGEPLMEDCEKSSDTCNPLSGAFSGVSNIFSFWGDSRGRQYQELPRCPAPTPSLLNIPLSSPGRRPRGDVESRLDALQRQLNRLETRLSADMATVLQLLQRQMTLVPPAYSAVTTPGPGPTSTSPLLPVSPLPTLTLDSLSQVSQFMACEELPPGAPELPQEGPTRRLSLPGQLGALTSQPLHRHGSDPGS

Structure (SMILES)	AUC(0-t) ([1]; male, ICR, mouse, po, mice plasma)	F ([1]; mice)	AUC(0-t) [2]	F ([2]; rats)	DC50 (Bcl6 [3])	IC50 [4]	DC50 (Bcl6 [5])	DC50 (Bcl6 [5]; listed as compound 8)
CNC(=O)COc1cc2cc(Nc3nc(N4CCN(CC5CCN(c6ccc(C7CCC(=O)NC7=O)cc6)CC5)CC4)ncc3Cl)ccc2n(C)c1=O (centres unmarked) [Compound 8]	> 1000 ng·h/mL	>50%	> 1000 ng·h/mL	>50%	< 10 nM	> 40000 nM	< 100 nM	< 5 nM
CNC(=O)COc1cc2cc(Nc3nc(N4CCC(O[C@H]5C[C@H](N6CCn7c(cc8cc(C9CCC(=O)NC9=O)c(F)cc87)C6)C5)CC4)ncc3Cl)ccc2n(C(C)C)c1=O (some centres unmarked) [Trifluoroacetate of compound 78]	–	–	> 1000 ng·h/mL	–	< 10 nM	> 40000 nM	–	–
